Measured values taken from PubChem BioAssay (NCI).
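Grown in 96-well plates, cells were treated for 48 hours with each compound at five concentrations. Insufficient inhibition: endpoint recorded as highest concentration tested. Definition used: TGI = concentration required for complete inhibition of growth.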

What was measured:
Experiment in all cases: NCI anticancer screen, dose series, 48 h
[1] = tested on: 786-0 renal
[2] = tested on: A549 NSCLC
[3] = tested on: ACHN renal
[4] = tested on: CAKI-1 renal
[5] = tested on: CCRF-CEM leukemia
[6] = tested on: COLO 205 colon
[7] = tested on: DLD-1 colon
[8] = tested on: DMS 114 small cell lung
[9] = tested on: EKVX NSCLC
[10] = tested on: HCC-2998 colon
[11] = tested on: HCT-116 colon
[12] = tested on: HCT-15 colon
[13] = tested on: HL-60(TB) leukemia
[14] = tested on: HOP-18 NSCLC
[15] = tested on: HOP-62 NSCLC
[16] = tested on: HOP-92 NSCLC
[17] = tested on: HT29 colon
[18] = tested on: IGROV1 ovarian
[19] = tested on: K-562 leukemia
[20] = tested on: KM12 colon
[21] = tested on: KM20L2 colon
[22] = tested on: LOX IMVI melanoma
[23] = tested on: LXFL 529 NSCLC
[24] = tested on: M14 melanoma
[25] = tested on: M19-MEL melanoma
[26] = tested on: MALME-3M melanoma
[27] = tested on: MOLT-4 leukemia
[28] = tested on: NCI-H460 lung
[29] = tested on: NCI-H522 lung
[30] = tested on: OVCAR-3 ovarian
[31] = tested on: OVCAR-4 ovarian
[32] = tested on: OVCAR-5 ovarian
[33] = tested on: OVCAR-8 ovarian
[34] = tested on: RPMI-8226 leukemia
[35] = tested on: RXF-631 renal
[36] = tested on: SF-268 CNS
[37] = tested on: SF-295 CNS
[38] = tested on: SF-539 CNS
[39] = tested on: SK-MEL-2 melanoma
[40] = tested on: SK-MEL-28 melanoma
[41] = tested on: SK-OV-3 ovarian
[42] = tested on: SNB-19 CNS
[43] = tested on: SNB-75 CNS
[44] = tested on: SR leukemia
[45] = tested on: SW-620 colon
[46] = tested on: TK-10 renal
[47] = tested on: UACC-257 melanoma
[48] = tested on: UACC-62 melanoma
[49] = tested on: UO-31 renal
[50] = tested on: XF 498 CNS

Measured: TGI

O=c1oc2c3ccc4ccccc4c3n(CCCN3CCCCC3)c2c2ccccc12
50.3 µM: [40]
63.9 µM: [19]
42.9 µM: [13]
41 µM: [26]
40.8 µM: [38]
37.2 µM: [1]
24.2 µM: [24]
> 100 µM: all other assays above
